From ChEMBL document CHEMBL1201862, “PubChem BioAssay data set” (2004)
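Test compounds were applied to cells in 96-well plates for 48 hours at 5 doses. The concentration for 50% growth inhibition is given as GI50.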 Active and inactive are the calls of the source. Cut-off read from the data, not from the text of the source: active = GI50 up to about 1.1 µM and inactive = higher.

Legend:
Assay in all cases: NCI tumour cell line growth inhibition, 48 h
HCC 2998 = test system: HCC 2998
UO-31 = test system: UO-31
SF-268 = test system: SF-268
M14 = test system: M14
UACC-62 = test system: UACC-62
OVCAR-8 = test system: OVCAR-8
HOP-18 = test system: HOP-18
OVCAR-5 = test system: OVCAR-5
IGROV-1 = test system: IGROV-1
SNB-78 = test system: SNB-78
NCI-H23 = test system: NCI-H23
HCT-15 = test system: HCT-15
MOLT-4 = test system: MOLT-4
EKVX = test system: EKVX
SF-539 = test system: SF-539
NCI-H460 = test system: NCI-H460
SW-620 = test system: SW-620
SK-MEL-5 = test system: SK-MEL-5
A498 = test system: A498
NCI-H226 = test system: NCI-H226
786-0 = test system: 786-0
SNB-19 = test system: SNB-19
SK-OV-3 = test system: SK-OV-3
DLD-1 = test system: DLD-1
COLO 205 = test system: COLO 205
SF-295 = test system: SF-295
Malme-3M = test system: Malme-3M
KM12 = test system: KM12
TK-10 = test system: TK-10
UACC-257 = test system: UACC-257
LXFL 529 = test system: LXFL 529
DMS-273 = test system: DMS-273
M19-MEL = test system: M19-MEL
SN12C = test system: SN12C
HL-60 = test system: HL-60
HCT-116 = test system: HCT-116
NCI-H522 = test system: NCI-H522
A549 = test system: A549
DMS-114 = test system: DMS-114
K562 = test system: K562
ACHN = test system: ACHN
CAKI-1 = test system: CAKI-1
HT-29 = test system: HT-29
SK-MEL-2 = test system: SK-MEL-2
U-251 = test system: U-251
SK-MEL-28 = test system: SK-MEL-28
LOX IMVI = test system: LOX IMVI
SNB-75 = test system: SNB-75
XF498 = test system: XF498
HOP-62 = test system: HOP-62
OVCAR-4 = test system: OVCAR-4
RXF 393 = test system: RXF 393
RXF 631 = test system: RXF 631
KM-20L2 = test system: KM-20L2
OVCAR-3 = test system: OVCAR-3
CCRF-CEM = test system: CCRF-CEM
SR = test system: SR
RPMI-8226 = test system: RPMI-8226
HOP-92 = test system: HOP-92

Q: `CCc1cccc(C(C)C)c1NC(=O)/C(=N\NC(N)=O)C(C(=O)OC)c1cnc2ccccc2n1` (stereo not drawn) was tested. Which GI50 (HCC 2998) did it give?
A: 40.6 µM (inactive)

Q: What about the GI50 (UO-31) of the same compound?
A: > 100 µM (inactive)

Q: And the GI50 (SF-268)?
A: > 100 µM (inactive)

Q: And the GI50 (M14)?
A: 39.6 µM (inactive)

Q: What about the GI50 (UACC-62) of the same compound?
A: 26 µM (inactive)

Q: What about the GI50 (OVCAR-8) of the same compound?
A: 54.1 µM (inactive)

Q: And the GI50 (HOP-18)?
A: 19.1 µM (inactive)

Q: What about the GI50 (OVCAR-5) of the same compound?
A: > 100 µM (inactive)

Q: And the GI50 (IGROV-1)?
A: 40.7 µM (inactive)

Q: What about the GI50 (SNB-78) of the same compound?
A: > 100 µM (inactive)

Q: What about the GI50 (NCI-H23) of the same compound?
A: 24.8 µM (inactive)

Q: And the GI50 (HCT-15)?
A: 39.2 µM

Q: And the GI50 (MOLT-4)?
A: 32.9 µM (inactive)

Q: And the GI50 (EKVX)?
A: > 100 µM (inactive)

Q: What about the GI50 (SF-539) of the same compound?
A: 52.7 µM (inactive)

Q: And the GI50 (NCI-H460)?
A: 31.6 µM (inactive)

Q: And the GI50 (SW-620)?
A: 39.5 µM (inactive)

Q: And the GI50 (SK-MEL-5)?
A: 18.7 µM (inactive)

Q: What about the GI50 (A498) of the same compound?
A: > 100 µM (inactive)

Q: And the GI50 (NCI-H226)?
A: 50.5 µM (inactive)

Q: And the GI50 (786-0)?
A: 60.8 µM (inactive)

Q: And the GI50 (SNB-19)?
A: 51.3 µM (inactive)

Q: What about the GI50 (SK-OV-3) of the same compound?
A: > 100 µM (inactive)

Q: And the GI50 (DLD-1)?
A: 79.6 µM (inactive)

Q: What about the GI50 (COLO 205) of the same compound?
A: 20.9 µM (inactive)

Q: What about the GI50 (SF-295) of the same compound?
A: 58.5 µM (inactive)

Q: What about the GI50 (Malme-3M) of the same compound?
A: 34.4 µM (inactive)

Q: What about the GI50 (KM12) of the same compound?
A: 41.6 µM (inactive)

Q: What about the GI50 (TK-10) of the same compound?
A: > 100 µM (inactive)

Q: What about the GI50 (UACC-257) of the same compound?
A: 32.1 µM (inactive)

Q: And the GI50 (LXFL 529)?
A: 52.4 µM (inactive)

Q: What about the GI50 (DMS-273) of the same compound?
A: 31.6 µM (inactive)

Q: And the GI50 (M19-MEL)?
A: 15.9 µM (inactive)

Q: And the GI50 (SN12C)?
A: 35 µM (inactive)

Q: And the GI50 (HL-60)?
A: 31.8 µM (inactive)

Q: And the GI50 (HCT-116)?
A: 24.2 µM (inactive)

Q: What about the GI50 (NCI-H522) of the same compound?
A: 24.9 µM (inactive)

Q: What about the GI50 (A549) of the same compound?
A: 24.8 µM (inactive)

Q: What about the GI50 (DMS-114) of the same compound?
A: 24.9 µM (inactive)

Q: And the GI50 (K562)?
A: 37.2 µM (inactive)

Q: And the GI50 (ACHN)?
A: 62.7 µM (inactive)

Q: And the GI50 (CAKI-1)?
A: > 100 µM (inactive)

Q: What about the GI50 (HT-29) of the same compound?
A: 35.8 µM (inactive)

Q: And the GI50 (SK-MEL-2)?
A: 53.3 µM (inactive)

Q: What about the GI50 (U-251) of the same compound?
A: 40.2 µM (inactive)

Q: What about the GI50 (SK-MEL-28) of the same compound?
A: 55.8 µM (inactive)

Q: And the GI50 (LOX IMVI)?
A: 34.8 µM (inactive)

Q: And the GI50 (SNB-75)?
A: 47.4 µM (inactive)

Q: And the GI50 (XF498)?
A: > 100 µM (inactive)

Q: What about the GI50 (HOP-62) of the same compound?
A: 40.6 µM (inactive)

Q: And the GI50 (OVCAR-4)?
A: 87.7 µM (inactive)

Q: What about the GI50 (RXF 393) of the same compound?
A: 50 µM (inactive)

Q: What about the GI50 (RXF 631) of the same compound?
A: 55.2 µM (inactive)

Q: What about the GI50 (KM-20L2) of the same compound?
A: 41.6 µM (inactive)

Q: What about the GI50 (OVCAR-3) of the same compound?
A: 20.8 µM (inactive)

Q: What about the GI50 (CCRF-CEM) of the same compound?
A: 39 µM (inactive)

Q: What about the GI50 (SR) of the same compound?
A: 46.5 µM (inactive)

Q: `O=C(Nc1nnc(S)[nH]1)C(=O)C(C(=O)c1ccc2ccccc2c1)C1OC(=O)c2ccccc21` (stereo not drawn) was tested. Which GI50 (HCC 2998) did it give?
A: 11.5 µM (inactive)

Q: And the GI50 (UO-31)?
A: 15.7 µM (inactive)

Q: What about the GI50 (SF-268) of the same compound?
A: 16.6 µM (inactive)

Q: What about the GI50 (M14) of the same compound?
A: 19.1 µM (inactive)

Q: What about the GI50 (UACC-62) of the same compound?
A: 15.6 µM (inactive)

Q: And the GI50 (OVCAR-8)?
A: 11.9 µM (inactive)

Q: What about the GI50 (HOP-18) of the same compound?
A: 0.305 µM (active)

Q: What about the GI50 (OVCAR-5) of the same compound?
A: 44.3 µM (inactive)

Q: And the GI50 (IGROV-1)?
A: 20.4 µM (inactive)

Q: And the GI50 (SNB-78)?
A: 29.8 µM (inactive)

Q: And the GI50 (NCI-H23)?
A: 17.1 µM (inactive)

Q: And the GI50 (HCT-15)?
A: 27.9 µM

Q: What about the GI50 (MOLT-4) of the same compound?
A: 3.78 µM (inactive)

Q: And the GI50 (RPMI-8226)?
A: 7.69 µM (inactive)

Q: What about the GI50 (EKVX) of the same compound?
A: 39.7 µM (inactive)

Q: And the GI50 (SF-539)?
A: 5.56 µM (inactive)

Q: What about the GI50 (NCI-H460) of the same compound?
A: > 100 µM (inactive)

Q: And the GI50 (SW-620)?
A: 28.9 µM (inactive)

Q: What about the GI50 (SK-MEL-5) of the same compound?
A: 18.1 µM (inactive)

Q: And the GI50 (A498)?
A: > 100 µM (inactive)

Q: What about the GI50 (NCI-H226) of the same compound?
A: 4.85 µM (inactive)

Q: What about the GI50 (786-0) of the same compound?
A: 14.9 µM (inactive)

Q: What about the GI50 (SNB-19) of the same compound?
A: 7.64 µM (inactive)

Q: What about the GI50 (SK-OV-3) of the same compound?
A: 23.4 µM (inactive)

Q: What about the GI50 (DLD-1) of the same compound?
A: 19.5 µM (inactive)

Q: And the GI50 (COLO 205)?
A: 15.9 µM (inactive)

Q: And the GI50 (Malme-3M)?
A: 31 µM (inactive)

Q: And the GI50 (KM12)?
A: 26.8 µM (inactive)

Q: And the GI50 (TK-10)?
A: 21.6 µM (inactive)

Q: What about the GI50 (UACC-257) of the same compound?
A: 19.7 µM (inactive)

Q: What about the GI50 (LXFL 529) of the same compound?
A: 12.1 µM (inactive)

Q: What about the GI50 (DMS-273) of the same compound?
A: 25.5 µM (inactive)

Q: What about the GI50 (M19-MEL) of the same compound?
A: 13.8 µM (inactive)

Q: What about the GI50 (SN12C) of the same compound?
A: 18.2 µM (inactive)

Q: And the GI50 (HCT-116)?
A: 13.7 µM (inactive)

Q: What about the GI50 (NCI-H522) of the same compound?
A: 17.6 µM (inactive)

Q: What about the GI50 (A549) of the same compound?
A: 37.5 µM (inactive)

Q: And the GI50 (DMS-114)?
A: 12.2 µM (inactive)

Q: And the GI50 (K562)?
A: 21 µM (inactive)

Q: What about the GI50 (ACHN) of the same compound?
A: > 100 µM (inactive)

Q: And the GI50 (CAKI-1)?
A: 30.3 µM (inactive)

Q: And the GI50 (HT-29)?
A: 35 µM (inactive)

Q: What about the GI50 (SK-MEL-2) of the same compound?
A: 23 µM (inactive)

Q: And the GI50 (U-251)?
A: 8.15 µM (inactive)

Q: What about the GI50 (SK-MEL-28) of the same compound?
A: 14.8 µM (inactive)

Q: What about the GI50 (LOX IMVI) of the same compound?
A: 17.8 µM (inactive)

Q: And the GI50 (HOP-92)?
A: 25.8 µM (inactive)

Q: And the GI50 (SNB-75)?
A: 13.8 µM (inactive)

Q: And the GI50 (XF498)?
A: 2.09 µM (inactive)

Q: And the GI50 (HOP-62)?
A: 14.7 µM (inactive)

Q: And the GI50 (OVCAR-4)?
A: 16.2 µM (inactive)

Q: What about the GI50 (RXF 393) of the same compound?
A: 10.6 µM (inactive)

Q: What about the GI50 (RXF 631) of the same compound?
A: 21.8 µM (inactive)

Q: And the GI50 (KM-20L2)?
A: 35.3 µM (inactive)

Q: And the GI50 (OVCAR-3)?
A: 15.5 µM (inactive)

Q: What about the GI50 (CCRF-CEM) of the same compound?
A: 15.5 µM (inactive)
